In US20220296535A1, “Antibacterial Dosage Regime Using Cannabinoids” (Botanix Pharmaceuticals Limited, priority 2019, published 2022):
In brackets after ≈: the same amount, converted by molar mass. Read-outs that look alike come from different tables or passages of the source.

Tests used:
[1] = Protein binding inferred from loss of activity in 50% human serum; assay type: in vitro ADME; details: assuming 3% free responsible for activity
Protocol: The compounds were serially diluted in mixture of 50% of human serum (Sigma; Cat. No. H3667-100ML) along with 50% Cation-adjusted Mueller Hinton Broth (CaMHB; BD, Cat. No. 212322) two-fold across the wells of polystyrene (PS) 96-well plates (Corning; Cat. No. 3370), plated in duplicate. All plates had flat bottom wells and were covered with low-evaporation lids.
All control antibiotics gave inhibitory values within the expected ranges.

[2] = tested on: Staphylococcus aureus ATCC 43300 MRSA; test: Antibacterial time kill assay; assay type: cell-based; details: for MIC: Staphylococcus aureus
Protocol: The time-kill method is based on CLSI guideline M26-A (NCCLS, 1999).
The collaborator supplied sample as dry material. A stock solution was prepared at 10 mg/mL in neat DMSO (11.2 mg in 1.12 mL of DMSO). The highest concentration tested in the assay was 64 μg/mL and 2% DMSO as a final concentration using 1/20 dilution to achieve these concentrations.
Time kill plates: CBD was plate across all the rows and serially diluted in Cation-adjusted Mueller Hinton Broth (CaMHB; BD, Cat. No. 212322) two-fold across the wells of polystyrene (PS) 96-well plates (Corning; Cat. No. 3370), plated in duplicate. Each row were taken as a time point, where row A, 0 h; row B, 1 h; row C, 2 h; row D, 3 h; row E, 4 h; row F, 6 h and row G, 24 h.
Also, control plates were made. CBD and standard antibiotics were serially diluted in Cation-adjusted Mueller Hinton Broth (CaMHB; BD, Cat. No. 212322) two-fold across the wells of polystyrene (PS) 96-well plates (Corning; Cat. No. 3370), plated in duplicate.
The tested bacteria was Staphylococcus aureus ATCC 43300 MRSA (ID GP_020:02).
Charcoal plate PS 96-well plates: 50 μL of sterile activated charcoal suspension (25 mg/ml) were added into row A. 90 μL of 0.9% sterile saline were added to subsequent rows.
(§1) Bacteria (Table 2.6) was cultured in CaMHB at 37° C. overnight, then diluted 40-fold and incubated at 37° C. for a further 2-3 h. The resultant mid-log phase cultures were diluted in CaMHB and added to each well of the control and time kill 96-well plates to give a final cell density of 5×10^5 CFU/mL, and a final compound concentration range of 0.03-64 μg/mL. The plates were covered and incubated at 37° C. for 24 h.
At selected time-points (0, 1, 2, 3, 4, 6 and 24 h), 50 μL of culture per-well was transferred from the time kill plate into the first row of charcoal plate (containing the charcoal suspension) to neutralise the compound. After mixing well, 10 μL were transferred from row A to row B to give a 1:10 dilution, this step was repeated until 1:10'000 (row E). […]
MICs and the time kill results were determined visually at 24 hr incubation. […]

[3] = tested on: Staphylococcus warneri ATCC 27836; test: Expanded panel MIC micro-broth dilution; assay type: cell-based; details: CaMHB
Protocol: (§2) The collaborator supplied sample as dry material. Angela Kavanagh prepared a stock solution at 10 mg/mL in neat DMSO. The highest concentration tested in the assay was 64 μg/mL for bacteria and 128 μg/mL for fungi. 2% DMSO was the final concentration using 1/20 dilution to achieve these concentrations.
(§3) The compound was serially diluted in Cation-adjusted Mueller Hinton Broth (CaMHB; BD, Cat. No. 212322) two-fold across the wells of polystyrene (PS) 96-well plates (Corning; Cat. No. 3370), plated in duplicate. All plates had flat bottom wells and were covered with low-evaporation lids.
as §1, with “were” for “(Table 2.6) was”, “compound-containing” for “control and time kill”, “20” for “24”
(§4) Inhibition of bacterial growth was determined visually, where the MIC was recorded as the lowest compound concentration with no visible growth.

[4] = tested on: Enterococcus faecium ATCC 35667; test: Expanded panel MIC micro-broth dilution; assay type: cell-based; details: CaMHB
Protocol: as §2, §3
as §1, with “were” for “(Table 2.6) was”, “compound-containing” for “control and time kill”, “20” for “24”
as §4

[5] = tested on: Staphylococcus aureus NARSA, VRS1; test: Expanded panel MIC micro-broth dilution; assay type: cell-based; details: CaMHB
Protocol: as §2, §3
as §1, with “were” for “(Table 2.6) was”, “compound-containing” for “control and time kill”, “20” for “24”
as §4

[6] = tested on: Streptococcus pyogenes ATCC 12344; test: Expanded panel MIC micro-broth dilution; assay type: cell-based; details: ATCC12344, CaMHB, read-out: Cannabidiol MIC (Batch 1)
Protocol: as §2, §3
as §1, with “were” for “(Table 2.6) was”, “compound-containing” for “control and time kill”, “20” for “24”
as §4

[7] = tested on: Staphylococcus aureus ATCC 25923; test: Expanded panel MIC micro-broth dilution; assay type: cell-based; details: CaMHB
Protocol: as §2, §3
as §1, with “were” for “(Table 2.6) was”, “compound-containing” for “control and time kill”, “20” for “24”
as §4

[8] = tested on: Staphylococcus aureus ATCC 33591; test: Expanded panel MIC micro-broth dilution; assay type: cell-based; details: CaMHB
Protocol: as §2, §3
as §1, with “were” for “(Table 2.6) was”, “compound-containing” for “control and time kill”, “20” for “24”
as §4

[9] = tested on: Staphylococcus epidermidis ATCC 12228; test: Expanded panel MIC micro-broth dilution; assay type: cell-based; details: CaMHB
Protocol: as §2, §3
as §1, with “were” for “(Table 2.6) was”, “compound-containing” for “control and time kill”, “20” for “24”
as §4

[10] = tested on: Staphylococcus aureus ATCC 29213; test: Expanded panel MIC micro-broth dilution; assay type: cell-based; details: CaMHB
Protocol: as §2, §3
as §1, with “were” for “(Table 2.6) was”, “compound-containing” for “control and time kill”, “20” for “24”
as §4

[11] = tested on: Staphylococcus warneri Clinical isolate; test: Expanded panel MIC micro-broth dilution; assay type: cell-based; details: CaMHB
Protocol: as §2, §3
as §1, with “were” for “(Table 2.6) was”, “compound-containing” for “control and time kill”, “20” for “24”
as §4

[12] = tested on: Staphylococcus aureus ATCC 43300; test: Expanded panel MIC micro-broth dilution; assay type: cell-based; details: ATCC43300, CaMHB, read-out: Cannabidiol MIC (Batch 1)
Protocol: as §2, §3
as §1, with “were” for “(Table 2.6) was”, “compound-containing” for “control and time kill”, “20” for “24”
as §4

[13] = tested on: Staphylococcus capitis ATCC 27840; test: Expanded panel MIC micro-broth dilution; assay type: cell-based; details: CaMHB
Protocol: as §2, §3
as §1, with “were” for “(Table 2.6) was”, “compound-containing” for “control and time kill”, “20” for “24”
as §4

Question: For `C=C(C)C1CCC(C)=CC1c1c(O)cc(CCCCC)cc1O` (stereo not drawn) [Cannabidiol, 2-[3-methyl-6-(1-methylethenyl)-2-cyclohexen-1-yl]-5-pentyl-1,3-benzenediol], which fraction unbound [1] is on record?
Answer: < 0.03

Question: And the MIC ([2]; CaMHB, 24 hr, read-out: CBD control MIC of the day)?
Answer: 2 µg/mL

Question: And the MIC ([2]; read-out: previous MIC data)?
Answer: 1 to 2 µg/mL (≈ 3.18 to 6.36 µM)

Question: And the “treatment time after which bactericidal” value ([2]; concentrations over or equal to the MIC value)?
Answer: 3 h

Question: And the “Cannabidiol MIC (Batch 1)” value ([3]; Staphylococcus warneri ATCC 27836)?
Answer: 4 µg/mL

Question: What about the MIC ([3]; Staphylococcus warneri, ATCC27836, Staphylococcus warneri ATCC 27836, read-out: Cannabidiol MIC (Batch 1)) of the same molecule?
Answer: 2 µg/mL (≈ 6.36 µM)

Question: And the “Cannabidiol MIC (Batch 1)” value ([4]; Enterococcus faecium ATCC 35667)?
Answer: 1 µg/mL

Question: And the MIC ([4]; Enterococcus faecium, ATCC35667, Enterococcus faecium ATCC 35667, read-out: Cannabidiol MIC (Batch 1))?
Answer: 0.5 µg/mL (≈ 1.59 µM)

Question: And the “Cannabidiol MIC (Batch 1)” value [5]?
Answer: 2 µg/mL

Question: What about the MIC ([5]; Staphylococcus aureus, read-out: Cannabidiol MIC (Batch 1)) of the same molecule?
Answer: 1 µg/mL (≈ 3.18 µM)

Question: What about the MIC [6] of the same molecule?
Answer: 1 µg/mL (≈ 3.18 µM)

Question: And the “Cannabidiol MIC (Batch 1)” value ([7]; Staphylococcus aureus ATCC 25923)?
Answer: 2 µg/mL

Question: What about the MIC ([7]; Staphylococcus aureus, ATCC25923, Staphylococcus aureus ATCC 25923, read-out: Cannabidiol MIC (Batch 1)) of the same molecule?
Answer: 1 µg/mL (≈ 3.18 µM)

Question: What about the “Cannabidiol MIC (Batch 1)” value ([8]; Staphylococcus aureus ATCC 33591) of the same molecule?
Answer: 2 µg/mL

Question: And the MIC ([8]; Staphylococcus aureus, ATCC33591, Staphylococcus aureus ATCC 33591, read-out: Cannabidiol MIC (Batch 1))?
Answer: 1 µg/mL (≈ 3.18 µM)

Question: And the “Cannabidiol MIC (Batch 1)” value ([9]; Staphylococcus epidermidis ATCC 12228)?
Answer: 2 µg/mL

Question: And the MIC ([9]; Staphylococcus epidermidis, ATCC12228, Staphylococcus epidermidis ATCC 12228, read-out: Cannabidiol MIC (Batch 1))?
Answer: 1 µg/mL (≈ 3.18 µM)

Question: And the “Cannabidiol MIC (Batch 1)” value ([10]; Staphylococcus aureus ATCC 29213)?
Answer: 2 µg/mL

Question: What about the MIC ([10]; Staphylococcus aureus, ATCC29213, Staphylococcus aureus ATCC 29213, read-out: Cannabidiol MIC (Batch 1)) of the same molecule?
Answer: 1 µg/mL (≈ 3.18 µM)

Question: What about the “Cannabidiol MIC (Batch 1)” value [11] of the same molecule?
Answer: 4 µg/mL

Question: And the MIC ([11]; Staphylococcus warneri, read-out: Cannabidiol MIC (Batch 1))?
Answer: 2 µg/mL (≈ 6.36 µM)

Question: What about the MIC [12] of the same molecule?
Answer: 1 µg/mL (≈ 3.18 µM)

Question: What about the “Cannabidiol MIC (Batch 1)” value ([13]; Staphylococcus capitis ATCC 27840) of the same molecule?
Answer: 2 µg/mL

Question: What about the MIC ([13]; Staphylococcus capitis, ATCC27840, Staphylococcus capitis ATCC 27840, read-out: Cannabidiol MIC (Batch 1)) of the same molecule?
Answer: 1 µg/mL (≈ 3.18 µM)
